Results taken from patent US12180213B2, “Substituted pyrazoles showing serotonin 5-HT receptor activity” (Sumitomo Pharma Co., Ltd., priority 2018, dated 2024).
Where two headings read alike, the source gives them in different places.

How the values were obtained:
human 5-HT1A receptor [1] = target: T1, human 5-HT1A receptor (Homo sapiens (Human), UniProt P08908); experiment: Test 1: binding activity for human 5-HT1A receptor ([3H]8-OH-DPAT); details: CHO cell membrane fraction
Experimental: (§1) Test 1: Evaluation of binding activity for human 5-HT1A receptor, human 5-HT2A receptor, and human D2 receptor
(§2) Binding affinity of the present compound for human 5-HT1A receptor, human 5-HT2A receptor, and human D2 receptor was measured by the following procedures.
(§3) Each mixture was incubated at room temperature for 60 minutes. Then, the mixture was added quickly on a glassfiber filter plate (Multiscreen FB, Millipore, Inc.) coated with 0.3% aqueous polyethylenimine, and vacuum-filtered. Radioactivity remaining on the filter was measured with a liquid scintillation counter (PerkinElmer, Inc.). Binding inhibition rate was calculated from the following formula.
IC50 value was calculated by Hill analysis (Physiology, 1910, 40, 190-200). Ki of each compound was calculated from the following formula.
(§4) Binding inhibition constant (Ki)=IC50/(1+S/Kd) wherein S is concentration of ligand; Kd is a binding dissociation constant of ligand to membrane, which is calculated from a saturated binding experiment conducted with the same cell membrane. A small Ki value means strong binding ability to a receptor.

human D2 receptor = human D2 receptor (Homo sapiens (Human), UniProt P14416); experiment: Test 1: binding activity for human D2 receptor ([3H]Spiperone); details: for Ki: [3H]Spiperone, CHO cell membrane fraction; for D2 Ki/5-HT1A Ki: ratio of D2 Ki to 5-HT1A Ki; for D2 Ki/5-HT2A Ki: ratio of D2 Ki to 5-HT2A Ki
Sequence of human D2 receptor (P14416 whole entry): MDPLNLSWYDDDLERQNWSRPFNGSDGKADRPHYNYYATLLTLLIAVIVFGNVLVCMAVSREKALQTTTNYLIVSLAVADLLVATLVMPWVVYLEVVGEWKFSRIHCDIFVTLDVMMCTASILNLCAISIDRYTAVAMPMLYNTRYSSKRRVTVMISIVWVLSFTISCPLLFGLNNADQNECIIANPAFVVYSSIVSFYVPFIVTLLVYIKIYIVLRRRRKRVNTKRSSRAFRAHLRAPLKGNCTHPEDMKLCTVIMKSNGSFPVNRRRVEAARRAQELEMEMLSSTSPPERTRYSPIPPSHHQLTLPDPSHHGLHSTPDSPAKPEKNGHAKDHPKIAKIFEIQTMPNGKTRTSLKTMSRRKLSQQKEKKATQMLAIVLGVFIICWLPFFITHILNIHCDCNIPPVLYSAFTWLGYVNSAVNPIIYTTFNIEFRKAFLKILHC
Experimental: as §1, §2, §3
(§5) Ki of each compound was calculated from the following formula.
as §4

human 5-HT1A receptor [2] = target: T1, human 5-HT1A receptor; experiment: Test 2: agonist activity for human 5-HT1A receptor ([35S]GTPγS binding); format: biochemical; details: for Emax at 10 µM / 5-HT1A agonist activity Emax: agonist activity in the presence of 10 μM of compound, relative to 100 μmol/L 5-HT
Experimental: Test 2: Evaluation of Agonist Activity for Human 5-HT1A Receptor
CHO cell membrane fraction in which human 5-HT1A receptor was expressed as used in Test 1 was purchased. To a buffer containing guanosine diphosphate were added a test compound dissolved in DMSO, each receptor membrane sample diluted with buffer, and [^35S] Guanosine 5′-O-[gamma-thio]triphosphate (GTPγS). The mixture was incubated at room temperature for 60 minutes. Then, the mixture was added quickly on a glassfiber filter plate (Multiscreen FB, Millipore, Inc.), and vacuum-filtered. Radioactivity remaining on the […] was measured with a liquid scintillation counter. Agonist activity was calculated from the following formula.

[3] = Test 4: metabolic stability test in human hepatic microsome; format: in vitro ADME; details: 0.1 mg/mL microsome, 0.1 μmol/L compound, 37° C., 30 minutes
Experimental: Test 4: Metabolic Stability Test in Human Hepatic Microsome
The stability of the present compound in human hepatic microsome metabolism was evaluated as mentioned below. Human hepatic microsome was obtained from Xenontech. Human hepatic microsome, NADPH, and each test compound were mixed in 25 mmol/L phosphate buffer solution (pH 7.4) to reach the following concentrations as shown below, and the mixture was incubated at 37° C. for 30 minutes. • Human hepatic microsome: 0.1 mg/mL • NAPDH: 3.2 mmol/L • Test compound: 0.1 μmol/L
The residual ratio of the test compound in each sample after 30 minutes was measured by LC-MS, and the metabolic stability in human hepatic microsome was calculated from the following formula. Metabolic stability in human hepatic microsome (mL/min/mg protein)=−LN(residual ratio)/30/0.1

hERG channel = hERG channel (Homo sapiens (Human), UniProt Q12809); experiment: Test 6-1: inhibitory activity for hERG channel (auto patch clamp, Qpatch); format: cell-based; details: whole cell patch clamp, read-out: hERG inhibition IC50
Sequence of hERG channel (Q12809 whole entry): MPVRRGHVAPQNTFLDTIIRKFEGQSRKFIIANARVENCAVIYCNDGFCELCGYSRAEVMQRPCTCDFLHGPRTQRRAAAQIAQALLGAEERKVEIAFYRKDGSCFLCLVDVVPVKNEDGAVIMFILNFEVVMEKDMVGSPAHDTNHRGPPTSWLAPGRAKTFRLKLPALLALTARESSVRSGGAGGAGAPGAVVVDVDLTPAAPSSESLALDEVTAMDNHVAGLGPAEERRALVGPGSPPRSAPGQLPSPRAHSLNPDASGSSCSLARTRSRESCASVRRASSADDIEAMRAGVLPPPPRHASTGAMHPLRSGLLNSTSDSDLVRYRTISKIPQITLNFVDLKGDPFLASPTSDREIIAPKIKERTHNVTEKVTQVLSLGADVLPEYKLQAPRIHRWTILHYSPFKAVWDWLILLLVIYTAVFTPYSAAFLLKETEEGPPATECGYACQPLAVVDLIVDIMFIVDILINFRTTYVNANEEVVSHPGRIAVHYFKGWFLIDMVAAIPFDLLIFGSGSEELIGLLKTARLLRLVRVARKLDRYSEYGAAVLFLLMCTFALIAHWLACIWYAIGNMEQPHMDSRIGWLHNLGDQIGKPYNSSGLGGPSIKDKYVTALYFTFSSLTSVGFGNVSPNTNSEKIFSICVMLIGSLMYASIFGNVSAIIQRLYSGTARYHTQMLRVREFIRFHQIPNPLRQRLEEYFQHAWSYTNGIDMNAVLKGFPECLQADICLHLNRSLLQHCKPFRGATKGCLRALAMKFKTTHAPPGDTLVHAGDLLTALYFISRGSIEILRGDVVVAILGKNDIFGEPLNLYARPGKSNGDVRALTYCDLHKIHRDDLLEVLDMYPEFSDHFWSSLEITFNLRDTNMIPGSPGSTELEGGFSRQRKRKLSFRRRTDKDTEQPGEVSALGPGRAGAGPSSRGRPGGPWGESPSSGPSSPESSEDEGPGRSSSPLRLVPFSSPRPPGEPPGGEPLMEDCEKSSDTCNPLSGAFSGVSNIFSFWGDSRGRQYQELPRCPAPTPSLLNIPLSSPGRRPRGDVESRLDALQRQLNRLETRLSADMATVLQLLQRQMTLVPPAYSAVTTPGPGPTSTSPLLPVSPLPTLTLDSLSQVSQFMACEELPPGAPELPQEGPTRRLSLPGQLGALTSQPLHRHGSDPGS
Experimental: Test 6-1: Evaluation of Inhibitory Activity for hERG Channel
Inhibitory activity of the present compound for hERG channel was measured by whole cell patch clamp method with an auto patch clamp system using CHO cells in which hERG channel involved in human rapidly activating delayed rectifier potassium current (IKr) was forcibly expressed.
(Preparation of cell suspension)
hERG-CHO cells purchased from ChanTest Cop. were cultured in a CO2 incubator at 37° C., and dissociated from a flask with trypsin shortly before the measurement of hERG current, to prepare a cell suspension.
(Preparation of Solution)
Extracellular and intracellular fluid used in the measurement were prepared as follows.
Intracellular fluid: 5.4 mmol/L CaCl2, 1.8 mmol/L MgCl2, 10 mmol/L HEPES, 31 mmol/L KOH, 10 mmol/L EGTA, 120 mmol/L KCl, 4 mmol/L Na2-ATP
Test compound solution: Test compound was dissolved in DMSO to reach the concentration of 2 mmol/L or 20 mmol/L, in order to prepare a test compound solution. […] (Measurement of Current Value and Data Analysis)
The cell suspension, the extracellular fluid, the intracellular fluid, and the measurement plate were set in the auto patch clamp system, and hERG current was measured by whole cell patch clamp method. […] Each pulse interval was 15 seconds. The data analysis was carried out with Qpatch Assay Software (Biolin Scientific). The test was carried out by applying incrementally 4 concentrations of each test compound, and the average of the maximum peak tail currents which were obtained from the last 3 stimulations in each concentration was determined as the evaluated data.

human 5-HT2A receptor [4] = target: T2, human 5-HT2A receptor (Homo sapiens (Human), UniProt P28223); experiment: Test 3: antagonist activity for human 5-HT2A receptor (aequorin luminescence, CHO-K1 cells); format: cell-based; details: against 1 nmol/L 5-HT
T2 sequence (P28223 whole entry): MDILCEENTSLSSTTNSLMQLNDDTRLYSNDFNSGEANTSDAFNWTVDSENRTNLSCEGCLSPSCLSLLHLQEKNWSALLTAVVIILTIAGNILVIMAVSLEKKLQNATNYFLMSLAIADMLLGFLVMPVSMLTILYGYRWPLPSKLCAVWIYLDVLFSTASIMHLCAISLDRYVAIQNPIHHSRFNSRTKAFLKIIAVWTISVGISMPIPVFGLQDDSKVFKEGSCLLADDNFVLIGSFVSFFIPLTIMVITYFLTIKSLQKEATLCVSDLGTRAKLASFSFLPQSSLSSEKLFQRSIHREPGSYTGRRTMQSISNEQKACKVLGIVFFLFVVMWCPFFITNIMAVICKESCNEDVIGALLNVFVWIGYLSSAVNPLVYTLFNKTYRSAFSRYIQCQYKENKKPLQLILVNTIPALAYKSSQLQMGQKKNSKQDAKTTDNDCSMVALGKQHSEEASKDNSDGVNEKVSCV
Experimental: Test 3: Evaluation of Antagonist Activity for Human 5-HT2A Receptor
Aequorin, Gα16 protein, and each receptor were transiently expressed in CHO-K1 cells (Chinese hamster ovary). […] Antagonist activity was calculated from the following formula.
Antagonist activity (%)=100×{(Luminescence of well in the presence of 1 nmol/L 5-HT−Luminescence of well containing solvent)−(Luminescence of well in the presence of test compound and 1 nmol/L 5-HT−Luminescence of well containing solvent)}/(Luminescence of well in the presence of 1 nmol/L 5-HT−Luminescence of well containing solvent)

human 5-HT2A receptor [5] = target: T2, human 5-HT2A receptor; experiment: Test 1: binding activity for human 5-HT2A receptor ([3H]Ketanserin); details: CHO cell membrane fraction
Experimental: as §1, §2, §3, §5, §4

[6] = human, CHO cells that express hERG

T1 sequence (P08908 whole entry): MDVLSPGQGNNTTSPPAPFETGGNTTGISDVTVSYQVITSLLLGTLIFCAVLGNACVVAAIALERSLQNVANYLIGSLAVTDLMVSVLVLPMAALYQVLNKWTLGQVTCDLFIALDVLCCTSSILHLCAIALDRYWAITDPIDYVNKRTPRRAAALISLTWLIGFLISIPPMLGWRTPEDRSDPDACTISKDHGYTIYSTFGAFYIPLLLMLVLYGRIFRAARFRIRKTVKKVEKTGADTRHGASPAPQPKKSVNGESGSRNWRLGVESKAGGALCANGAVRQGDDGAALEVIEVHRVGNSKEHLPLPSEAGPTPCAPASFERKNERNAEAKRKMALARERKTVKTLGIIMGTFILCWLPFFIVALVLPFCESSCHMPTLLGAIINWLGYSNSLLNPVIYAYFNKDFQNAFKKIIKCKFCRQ

Ki (human 5-HT1A receptor [1]) [nM] | SMILES | Emax at 10 µM (human 5-HT1A receptor [2]) [%] | Metabolic stability in human hepatic microsome [3] [mL/min/mg protein] | Ki (human 5-HT2A receptor [5]) [nM] | also measured
7.03 | O=c1c2ncccc2ccn1CCN1CCN(c2nsc3cc(F)ccc23)CC1 [Example 12] | 32 | 0.02 |  | Ki (human D2 receptor): 311 nM; D2 Ki/5-HT1A Ki (human D2 receptor): 44; D2 Ki/5-HT2A Ki (human D2 receptor): 111
 | O=C1c2cnccc2CCN1CCN1CCC(c2noc3ccccc23)CC1 [Example 13] |  | <0.01 |  | IC50 (hERG channel; hERG-CHO cells): 1100 nM; IC50 (human 5-HT2A receptor [4]): 71 nM
 | Cn1ncc2c1CCCC(CCN1CCN(c3noc4ccccc34)CC1)C2=O (stereo not drawn) [Example 30] | 42 | 0.065 | 0.76 | IC50 (hERG channel; [6]): 900 nM
0.84 | Cc1nc2c(o1)CCN(CCN1CCN(c3noc4ccccc34)CC1)C2=O [Example 39] | 61 | 0.016 |  | Ki (human D2 receptor): 1860 nM
 | Cc1cc2c(o1)C(=O)N(CCN1CCN(c3nsc4ccccc34)CC1)CC2 [Example 45] | 65 | 0.032 | 3.1 | IC50 (hERG channel; [6]): 7000 nM
1.17 | O=C1c2oc(C3CC3)nc2CCC1CCN1CCN(c2nsc3ccccc23)CC1 (stereo not drawn) [Example 67] | 65 | 0.269 |  | 
 | Cn1nc(Br)c2c1CCN(CCN1CCN(c3nsc4ccccc34)CC1)C2=O [Example 69] |  |  |  | EC50 (human 5-HT1A receptor [2]; concentration at which half the activity of Emax was obtained): 33.9 nM
 | Cn1nc(Br)c2c1CCN(CCN1CCC(c3noc4ccccc34)CC1)C2=O [Example 70] |  |  |  | 5-HT1A agonist activity Emax (human 5-HT1A receptor [2]): 50%
 | Cn1nc2c(c1Br)C(=O)N(CCN1CCN(c3nsc4ccccc34)CC1)CC2 [Example 73] |  |  |  | 5-HT1A agonist activity Emax (human 5-HT1A receptor [2]): 62%
 | O=C1c2ncccc2CCN1CCN1CCN(c2noc3cc(Cl)ccc23)CC1 [Example 124] |  |  |  | Ki (human D2 receptor): > 10000 nM
184 | COc1ccc2c(N3CCN(CCN4CCc5cccnc5C4=O)CC3)noc2c1 [Example 149] | 16 |  | 217 | Ki (human D2 receptor): > 10000 nM; D2 Ki/5-HT1A Ki (human D2 receptor): >54.3; D2 Ki/5-HT2A Ki (human D2 receptor): >46.1
 | COc1ccc2c(n1)C(=O)N(CCN1CCN(c3noc4ccccc34)CC1)CC2 [Example 186] |  | 0.095 |  | 
 | COc1ccc2c(n1)C(=O)N(CCN1CCC(c3noc4ccccc34)CC1)CC2 [Example 187] |  | <0.05 |  | 

SMILES | Ki (human 5-HT1A receptor [1]) [nM] | Emax at 10 µM (human 5-HT1A receptor [2]) [%] | Metabolic stability in human hepatic microsome [3] [mL/min/mg protein] | Ki (human 5-HT2A receptor [5]) [nM] | also measured
Cc1noc2c1C(=O)N(CCN1CCN(c3noc4ccccc34)CC1)CCC2 [Example 38] | 13.5 | 56 | 0.136 | 4.44 | IC50 (hERG channel; [6]): 500 nM
CC1CC(CCN2CCC(c3noc4ccccc34)CC2)C(=O)c2ccn(C)c21 (stereo not drawn) [Example 82] | 0.61 | 61 | 0.072 | 0.87 | 
